Values quoted from earlier work in patent US20220354783A1, “INJECTABLE PROLONGED-ACTION COMPOSITIONS FOR USE IN THE TREATMENT OF NAIL DISEASE AND/OR FOR PROMOTING NAIL GROWTH” (EDIX-O SARL, priority 2018, published 2022).

System: nail diseases
Details: oral forms, 250 mg per day for 6 to 12 weeks

In the case of `CN(C/C=C/C#CC(C)(C)C)Cc1cccc2ccccc12` [terbinafine], the “total healing in clinical studies” value is listed as 38%.
